The values below come from ChEMBL document CHEMBL1201862, “PubChem BioAssay data set” (2004).

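These data come from cells grown in 96-well plates and exposed to compound for 48 hours at five concentrations. GI50: concentration for 50% inhibition of growth.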 Active and inactive are the calls of the source. No stated cut-off is given here; in the data, active = GI50 up to about 1.1 µM and inactive = higher.

What all share (assay): growth of human tumour cells (NCI), 48 h
Assay [1] has as its system HCC 2998.
Assay [2] concerns RPMI-8226.
Assay [3] has as its system HCT-116.
The test system of assay [4] is OVCAR-4.
The test system of assay [5] is UO-31.
Assay [6] has as its system HCT-15.
The test system of assay [7] is SR.
For assay [8], the system named is U-251.
In assay [9] the test system is HOP-62.
The subject of assay [10] is MOLT-4.
The test system of assay [11] is SNB-19.
Assay [12] deals with KM-20L2.
Assay [13] concerns SK-MEL-28.
The subject of assay [14] is COLO 205.
Assay [15] deals with Malme-3M.
Assay [16] deals with OVCAR-3.
For assay [17], the system named is OVCAR-8.
Assay [18] concerns SF-268.
The test system of assay [19] is IGROV-1.
Assay [20] relates to NCI/ADR-RES.

As for `COc1cc(C=C2C(=O)NC(=O)NC2=O)cc(OC)c1OC`, the GI50 in [1] was > 100 µM (inactive); in [2], > 100 µM (inactive); in assay [3] it was > 100 µM (inactive); in assay [4], > 100 µM (inactive); in [5], > 100 µM (inactive); in assay [6] it was above 100 µM. The GI50 in [7], in assay [8], in assay [9], in [10], in assay [11] and in [12] was > 100 µM (inactive) in each case. Further, the GI50 in assay [13], in assay [14], in assay [15], in [16], in assay [17] and in assay [18] was > 100 µM (inactive) in each case.

With `C[C@H](O)CCC(=O)c1ccoc1`, the GI50 in assay [1] was > 66.1 µM (inactive); in [2], > 100 µM (inactive); in assay [3] it was > 100 µM (inactive); in assay [4] it was > 100 µM (inactive); in [5] it was > 100 µM (inactive); in assay [6], above 100 µM. The GI50 in assay [7], in assay [8], in [19], in assay [9], in [10] and in [11] was > 100 µM (inactive) in each case. Further, the GI50 in assay [12], in assay [13], in assay [14], in [15], in assay [16] and in assay [17] was > 100 µM (inactive) each time. The GI50 in assay [18] was > 100 µM (inactive).

Take `O=C1C(CN2CCOCC2)CCCC1CN1CCOCC1` (stereo unspecified): the GI50 in assay [1] is 5.27 µM (inactive); in assay [2], 0.296 µM (active); in assay [3], 1.29 µM (inactive); in assay [4] it was 2.18 µM (inactive); in assay [20], 2.18 µM (inactive); in assay [5] it was 9.73 µM (inactive). For the same compound, the GI50 is 1.09 µM in [6]; 5.31 µM (inactive) in assay [7]; 30.1 µM (inactive) in [8]; 8.79 µM (inactive) in assay [19]; > 100 µM (inactive) in assay [9]; 0.861 µM (active) in assay [10]. Moreover, the GI50 was 30.8 µM (inactive) in assay [11]; 6.43 µM (inactive) in assay [12]; 1.95 µM (inactive) in [13]; 3.1 µM (inactive) in assay [14]; 0.724 µM (active) in assay [15]; 3.1 µM (inactive) in assay [16]. In addition, the figures for the GI50 in assay [17] and in assay [18] were 3.41 µM (inactive) and 9.77 µM (inactive), respectively.

As to `CCOC(=O)CC(=O)Sc1ccccc1`, the GI50 in assay [1] was 23.9 µM (inactive); in assay [2], 17.7 µM (inactive); in [3], 12.6 µM (inactive); in assay [4], 37.7 µM (inactive); in assay [5], 14.7 µM (inactive); in [7] it was 14.1 µM (inactive). Further, the GI50 in [8] was 12.4 µM (inactive); in assay [19], 12.5 µM (inactive); in [9] it was 27.1 µM (inactive); in [10], 11 µM (inactive); in assay [11] it was 28.2 µM (inactive); in assay [12], 21.2 µM (inactive). For the same compound, the GI50 in assay [13] is 14.6 µM (inactive); in [14], 25.9 µM (inactive); in assay [15], 25.6 µM (inactive); in assay [16] it was 17.3 µM (inactive); in assay [17], 16.9 µM (inactive); in assay [18], 3.25 µM (inactive).

Consider `O=C1C2C=CC(n3[nH]c(=O)n(Cc4ccccc4)c3=O)CC2C(=O)N1c1ccc(Br)cc1` (stereo unspecified), for which the GI50 in assay [1] was > 100 µM (inactive); in [2], > 100 µM (inactive); in assay [3] it was > 100 µM (inactive); in assay [4] it was > 100 µM (inactive); in assay [5], > 100 µM (inactive); in assay [6] it was above 100 µM. For the same compound, the GI50 in assay [7], in assay [8], in [19], in [9], in assay [10] and in [11] was > 100 µM (inactive) in each case. Moreover, the GI50 in [12], in assay [13], in assay [14], in assay [15], in assay [16] and in assay [17] was > 100 µM (inactive) in each case. In addition, in [18], the GI50 was > 100 µM (inactive).

As for `C=C(CN(C)C)C(=O)c1ccccc1Cl`, the GI50 was 26.5 µM (inactive) in [1]; 17.7 µM (inactive) in assay [2]; 18.4 µM (inactive) in [3]; 20.4 µM (inactive) in assay [4]; 18.9 µM (inactive) in assay [5]; 17.3 µM in [6]. For the same compound, the GI50 in [7] is 10.8 µM (inactive); in assay [8], 52.1 µM (inactive); in assay [19], > 47 µM (inactive); in assay [9], > 100 µM (inactive); in [10], 6.68 µM (inactive); in [11] it was 63.1 µM (inactive). Moreover, the GI50 was 30.1 µM (inactive) in [12]; 7.59 µM (inactive) in [13]; 13.9 µM (inactive) in assay [14]; 16.2 µM (inactive) in assay [15]; 19.7 µM (inactive) in assay [16]; 18.3 µM (inactive) in assay [17]. Further, the GI50 in assay [18] is 21.9 µM (inactive).

With `O=c1[nH]c(=O)n(C2OC(CO)C(O)C2O)cc1OCC(F)(F)F` (stereo unspecified), the GI50 in [1] was > 100 µM (inactive); in [2], > 100 µM (inactive); in assay [3] it was > 100 µM (inactive); in assay [4] it was > 100 µM (inactive); in assay [5], > 100 µM (inactive); in [6], above 100 µM. The GI50 in assay [7], in assay [8], in assay [19], in [9], in assay [10] and in [11] was > 100 µM (inactive) in each case. Moreover, the GI50 in [12], in [13], in [14], in assay [15], in assay [16] and in [17] was > 100 µM (inactive) throughout. Further, in [18], the GI50 is > 100 µM (inactive).

For the compound `CC(=O)OC1CC[C@@]2(C)C(CC[C@]3(C)C2CC=C2[C@@H]4C(C)[C@H](C)CCC4(C)CCC23C)[C@@]1(C)C(=O)O` (stereo partly specified), the GI50 in assay [1] was 19.1 µM (inactive); in assay [2], 21.9 µM (inactive); in [3] it was 16.4 µM (inactive); in assay [4] it was 26 µM (inactive); in [20] it was 17 µM (inactive); in assay [5] it was 20.7 µM (inactive). Moreover, the GI50 in [6] was 17.6 µM; in [7], 27.9 µM (inactive); in [8], 22 µM (inactive); in assay [19], 20.6 µM (inactive); in [9], 20.7 µM (inactive); in assay [10] it was 26.8 µM (inactive). Besides, the GI50 was 22.9 µM (inactive) in [11]; 16.2 µM (inactive) in assay [12]; 23.7 µM (inactive) in [13]; 20.4 µM (inactive) in [14]; 24.2 µM (inactive) in assay [15]; 18.9 µM (inactive) in assay [16]. For the same compound, the GI50 in [17] was 23.6 µM (inactive); in assay [18], 23.5 µM (inactive).

As to `CC(=O)OC(C[C@H](C)[C@@H]1CC[C@]2(C)C3=CCC4C(C)(C)C(=O)CC[C@]4(C)C3CCC12C)C1OC1(C)C` (stereo partly specified), the GI50 in [1] is 16.4 µM (inactive); in assay [2], 16.7 µM (inactive); in assay [3], 18.2 µM (inactive); in assay [4] it was 28 µM (inactive); in assay [5], 13.2 µM (inactive); in assay [6] it was 33 µM. For the same compound, the GI50 in assay [7] was > 10 µM (inactive); in assay [8], 21.9 µM (inactive); in [19], 21.9 µM (inactive); in assay [9] it was 20.4 µM (inactive); in [10], 24.5 µM (inactive); in [11] it was 39.6 µM (inactive). In addition, the GI50 in [12] was 25.5 µM (inactive); in assay [13], 27.3 µM (inactive); in assay [14], 19.9 µM (inactive); in assay [15] it was 25.1 µM (inactive); in assay [16], 88.9 µM (inactive); in [17] it was 28.8 µM (inactive). Moreover, the GI50 in assay [18] is 21.6 µM (inactive).

For the compound `C[C@]12CC[C@@H]3c4ccc(O)cc4CC[C@H]3[C@@H]1CC[C@@H]2OC(=O)CCC1CCCC1` [ESTRADIOL CYPIONATE], the GI50 in assay [1] is 19.8 µM (inactive); in [2], 18.5 µM (inactive); in assay [3], 17.3 µM (inactive); in assay [4] it was 17.5 µM (inactive); in [20], 16.5 µM (inactive); in assay [5], 18.4 µM (inactive). Also, the GI50 is 16.2 µM in [6]; 17.8 µM (inactive) in assay [7]; 18.7 µM (inactive) in assay [8]; 17.6 µM (inactive) in assay [19]; 18.8 µM (inactive) in assay [9]; 17.8 µM (inactive) in assay [10]. Also, the GI50 in assay [11] is 16.9 µM (inactive); in assay [12] it was 17.7 µM (inactive); in assay [13], 18.2 µM (inactive); in assay [14] it was 19.1 µM (inactive); in [15] it was 26.9 µM (inactive); in [16], 16.4 µM (inactive). The GI50 in assay [17] is 16.7 µM (inactive); in assay [18], 21.8 µM (inactive).
